Read-outs that look alike come from different tables or passages of the source.
What was measured:
[1] = tested on: HSJD-RBT-5 retinoblastoma cells; assay: cells; type: cell-based; conditions: Homo sapiens
[2] = tested on: E1a; type: cell-based
[3] = tested on: Y79 tumors; type: in vivo, mouse; conditions: systemic drug after intratumoral VCN-01 3×10E^9 vp/tumor; 5 or 15 days (FIGS. 2A-B)
[4] = tested on: E2F-1, p21 and cyclin E1; type: cell-based
[5] = tested on: CDKN1A; type: cell-based, human; conditions: RBT-7 cells pre-infected with VCN-01; topotecan 2 μM (FIG. 17F)
Experimental: (§1) To assess the expression of genes involved in the cell cycle, 6-well culture plates containing 2×10^6 retinoblastoma cells were used. VCN-01 was added at 50 MOI for 48 h, followed by the addition of topotecan (2 μM), […] (12.5 μM) or culture medium. The cell pellets were collected 24 h later. The samples were plated in the TaqMan® Array of Human Cyclins & Cell Cycle Regulation (Thermo Fisher Scientific). This array contains 92 assays of cell cycle-associated genes and assays of GAPDH, 18S, HPRT1 and GUSB as endogenous control genes. the threshold cycle (Ct) value ≥35 was established as absence of expression. The mean expression value of the controls was used to normalize gene expression values. The thresholds for upregulation and downregulation were 2^−ΔΔCt≥2.0 and 2^−ΔΔct≤0.5, respectively (Livak and Schmittgen, “Analysis of relative gene expression data using real-time quantitative PCR and the 2 (−Delta Delta C(T)) Method,” Methods 2001; 25(4):402-8).
(§2) SYBR primers were CDKN1A (Forward 5′-GGACAGGAGAGGAAGACCATGT-3′ (SEQ ID NO: 15), Reverse 5′-TGGAGTGGTAGAATTCTGTCATGC-3′ (SEQ ID NO: 16) and CDK6 (Forward 5′-CCAGGCAGGCTTTTCATTCA-3′ (SEQ ID NO: 17), Reverse 5′-AGGTCCTGGAAGTATGGGTG-3′ (SEQ ID NO: 18).

[6] = tested on: CDK6; assay: Cell cycle gene expression array, CDK6; type: cell-based, human; conditions: RBT-7 cells pre-infected with VCN-01; topotecan 2 μM (FIG. 17F)
Experimental: as §1, §2

[7] = tested on: Y79 cells and primary retinoblastoma cultures; type: cell-based
[8] = tested on: Y79 xenografts; assay: Ocular survival, Y79 intraocular xenografts (first study); type: in vivo, mouse; conditions: control 37 days; P vs control: combination 0.0005, topotecan 0.062, standard of care 0.674, VCN-01 1 (FIG. 20A)
Experimental: Antitumor activity in retinoblastoma. […] For ocular tumors, treatments were started at day 8 after inoculation (when tumors were appreciable by fundus examination).
In a first study, one dose of VCN-01 (3×10^8 vp in 2 μL vehicle, intravitreal, day 15), therapeutic schedules of topotecan or standard of care (SoC) retinoblastoma chemotherapy, or their combinations, was administered in the Y79 intraocular xenograft. For topotecan, mice received 0.6 mg/kg i.p. injections on days 8-12 and 29-33. […] 40 mg/kg, on days 8 and 29, and etoposide 6 mg/kg, on days 8-10 and 29-31.

[9] = tested on: RBT-7 xenografts; assay: Ocular survival, RBT-7 intraocular xenografts; type: in vivo, mouse; conditions: control 35 days; combination P<0.0001 (FIG. 20C)
Experimental: Antitumor activity in retinoblastoma. For orthotopic intraocular engraftments 2×10^5 retinoblastoma cells were inoculated per eye, in 2 μL matrigel (Pascual-Pasto et al., 2016). To obtain s.c. xenografts 10^6 cells were injected in 25 μl matrigel. For ocular tumors, treatments were started at day 8 after inoculation (when tumors were appreciable by fundus examination). For s.c. tumors, treatments were started when volumes achieved 100-300 mm^3 (day 1). After treatments, the survivors were followed up until endpoint and the median survival of each group was calculated, as described previously (Mandigo et al., 2022; Rodríguez-García et al., 2015).
In a second experiment, the sequence of administration of one injection of VCN-01 and one 5-day cycle of topotecan was addressed. Mice with intraocular tumors (Y79 or RBT-7) received either topotecan 0.6 mg/kg, i.p. on days 8-12, one intravitreal injection of VCN-01 (3×10^8 vp) on day 8, or the combination of topotecan and VCN-01. Y79-bearing mice also received a switched treatment sequence, with VCN-01 on day 12, after the last dose of topotecan.

[10] = tested on: RBT-7 intracerebral tumors; assay: Antitumor activity in CNS-disseminated retinoblastoma; type: in vivo, mouse; conditions: control 22 days; P of combination vs control 0.0004, topotecan 0.0072, standard of care 0.0040, VCN-01 0.0372; animals dying of toxicity excluded (FIG. 22C)
Text: Antitumor activity in CNS-disseminated retinoblastoma. A model of retinoblastoma dissemination was established in the leptomeninges of the CNS. Anesthetized mice were restrained in a stereotactic apparatus (Stoelting, Wood Dale, IL, USA). Using a mouse brain atlas (Paxinos and Franklin, “The mouse brain in stereotaxic coordinates,” San Diego: Academic Press; 2001), the coordinates of the fourth ventricle were located and the surface of the skull was drilled. Then, […] (RBT-7) in 10 µL matrigel was injected with a dull 22G needle attached to a 50 µL syringe (Hamilton, Bonaduz, Switzerland). One week later, treatments were started with VCN-01 (3×10^9 vp in 20 µL vehicle, intraventricular, day 8), topotecan (0.6 mg/kg, i.p., days 8-12), SoC chemotherapy ([…], 40 mg/kg, i.p., day 8, and etoposide, 6 mg/kg, i.p., days 8-10) or the combination of VCN-01 and chemotherapies. The control group received the vehicle of VCN-01 (intraventricular). Animals achieved experimental endpoints upon deterioration of condition or 20% weight loss. Brains collected at endpoint were embedded in paraffin and stained with hematoxylin and eosin (H&E), human nuclei (MAB4383, 1:200, Millipore), viral protein E1A (ab33183, 1:200, Abcam) and CD45 (leukocyte common antigen; 70257, 1:200, Cell Signaling).

[11] = tested on: RBT-7 intracerebral tumors; assay: Brain analyses at end of treatment, CNS-disseminated retinoblastoma; type: in vivo, mouse; conditions: end of treatment (FIG. 22G)
[12] = cited from earlier work

CC[C@@]1(O)C(=O)OCc2c1cc1n(c2=O)Cc2cc3c(CN(C)C)c(O)ccc3nc2-1 [Topotecan, topotecan]
IC50 ([1]; read-out: IC50, Topotecan single agent): 87.9 nM
IC50 ([1]; read-out: IC50, Topotecan with VCN-01 (10 MOI)): 586 nM
expression of VCN-01 proteins (E1a) ([2]; 4 retinoblastoma models, VCN-01 50 MOI, drug added at 24 h, lysis at 48 h (FIG. 1)): enhanced expression of VCN-01 proteins
E1A expression in infected cells ([2]; VCN-01 infected cells treated with drug (FIG. 13B, FIG. 15A)): highly overexpressed
VCN-01 genome content in tumors [3]: increases VCN-01 genome content
duration of E2F-1, p21 and cyclin E1 increase ([4]; FIG. 17D): at least 48 h
protein expression of E2F-1, p21 and cyclin E1 ([4]; Y79 cells (FIG. 17D)): increased protein expression of E2F-1, p21 and cyclin E1
onset of E2F-1, p21 and cyclin E1 increase ([4]; after exposure (FIG. 17D)): 1 h
increase in expression of CDKN1A [5]: 10 fold
decrease in expression of CDK6 [6]: 15 fold
transgene expression, virus first ([7]; cells pre-infected with AdTLRGDK (FIG. 18E, FIG. 19A)): increased transgene expression
viral transduction, drug first ([7]; drug exposure before viral infection (FIG. 18E)): did not enhance viral transduction
median ocular survival [8]: 58 days
median survival [9]: 39 days
median survival [10]: 28 days
expression of CDKN1A in brain homogenates [11]: highest expression of CDKN1A
ocular toxicity ([12]; all routes of administration): minimal
passage to the vitreous ([12]; given intravenously and intraarterially): favorable passage to the vitreous
